One data set concerns guinea pig myocytes. On the set-up: method as in Duff et al., 1995. The following applies: ref Duff et al., 1995, cited from earlier work.
For the next data set, the system named is M651T hERG1. Further details: method as in Perissinotti et al., 2019. The conditions noted are these: ref Perissinotti et al., 2019; cited from earlier work.
The next data set has as its target WT hERG1 (Homo sapiens, UniProt Q12809). Nature of the data set: cell-based. The conditions noted are these: HEK 293 cells. The text has this: (§1) The site-directed mutagenesis methods utilized in this work have been previously reported ([Lees-Miller et al., 2015]; [Wang et al., 2016]). The hERG1 constructs were transfected into mammalian HEK cells. Conventional overlap PCR with primers were synthesized by Sigma Genosys (Oakville, Ontario, Canada) and sequenced by using Eurofins MWG Operon (Huntsville, AL) to create the single- and double-point mutant constructs of hERG1. Following this, XbaI restriction endonuclease was used to linearize and the cRNA was transcribed in vitro using the mMessage mMachine T7 Ultra cRNA transcription kit (Ambion, Austin, TX).
(§2) All experiments were performed under room temperature (295 K). The extracellular solution contained (mM) NaCl 140, KCl 5.4, CaCl2 1, MgCl2 1, HEPES 5, glucose 5.5; the pH of the solution was adjusted and kept at 7.4 with NaOH solution. Micropipettes were pulled from borosilicate glass capillary tubes using a programmable horizontal puller (Sutter Instruments, Novato, CA). […] Tail currents were recorded when the voltage was returned to −100 mV from +50 mV. […] The changes of hERG1 currents during the intracellular dialysis of the drug were monitored each minute right after forming the whole cell configuration. […]

In the next data set the target is F656C hERG1 (Homo sapiens, UniProt Q12809, F656C). Nature of the data set: whole-cell patch-clamp of hERG1 tail currents, F656C mutant.
Excerpt: as §1, §2

In a further data set the target is T1, F557L/F656C hERG1 (Homo sapiens, UniProt Q12809, F557L/F656C).
T1 construct: expressed in transfected cells; host or cells: HEK 293
Nature of the data set: whole-cell patch-clamp of hERG1 tail currents, double mutation F557L/F656C. It is filed as cell-based.
Excerpt: as §1, §2

For another data set, the target named is T2, hERG1 (Homo sapiens, UniProt Q12809).
T2 construct: expressed in transfected cells; host or cells: HEK 293
Nature of the data set: intracellular application of drug via the patch pipette, hERG1 current. It is filed as cell-based. The following applies: 100 µM (15-fold greater than extracellular IC50). How it is done:
All experiments were performed under room temperature (295 K). The extracellular solution contained (mM) NaCl 140, KCl 5.4, CaCl2 1, MgCl2 1, HEPES 5, glucose 5.5; the pH of the solution was adjusted and kept at 7.4 with NaOH solution. Micropipettes were pulled from borosilicate glass capillary tubes using a programmable horizontal puller (Sutter Instruments, Novato, CA). The “intracellular” pipette solution contained the following: 10 mM KCl, 110 mM K-aspartate, 5 mM MgCl2, 5 mM Na2ATP, 10 mM EGTA [ethylene glycol-bis(-aminoethyl ether)-N,N,N,N tetraacetic acid], 5 mM HEPES, and 1mM CaCl2. The internal solution was then adjusted to pH 7.2 with KOH solution. Transfected HEK cells were patched to record the hERG1 currents. Standard patch-clamp methods were used to measure the whole cell currents of hERG1 mutants expressed in HEK 293 cells using the AXOPATCH 200B amplifier (Axon Instruments). Tail currents were recorded when the voltage was returned to −100 mV from +50 mV. Ivabradine was dissolved in Tyrode solution immediately before the experiments and the solutions were used for the next 2 h during the experiments. […] The changes of hERG1 currents during the intracellular dialysis of the drug were monitored each minute right after forming the whole cell configuration.

Like-named read-outs stand apart in the source and are kept apart here.

WT hERG1, sequence (Q12809 whole entry): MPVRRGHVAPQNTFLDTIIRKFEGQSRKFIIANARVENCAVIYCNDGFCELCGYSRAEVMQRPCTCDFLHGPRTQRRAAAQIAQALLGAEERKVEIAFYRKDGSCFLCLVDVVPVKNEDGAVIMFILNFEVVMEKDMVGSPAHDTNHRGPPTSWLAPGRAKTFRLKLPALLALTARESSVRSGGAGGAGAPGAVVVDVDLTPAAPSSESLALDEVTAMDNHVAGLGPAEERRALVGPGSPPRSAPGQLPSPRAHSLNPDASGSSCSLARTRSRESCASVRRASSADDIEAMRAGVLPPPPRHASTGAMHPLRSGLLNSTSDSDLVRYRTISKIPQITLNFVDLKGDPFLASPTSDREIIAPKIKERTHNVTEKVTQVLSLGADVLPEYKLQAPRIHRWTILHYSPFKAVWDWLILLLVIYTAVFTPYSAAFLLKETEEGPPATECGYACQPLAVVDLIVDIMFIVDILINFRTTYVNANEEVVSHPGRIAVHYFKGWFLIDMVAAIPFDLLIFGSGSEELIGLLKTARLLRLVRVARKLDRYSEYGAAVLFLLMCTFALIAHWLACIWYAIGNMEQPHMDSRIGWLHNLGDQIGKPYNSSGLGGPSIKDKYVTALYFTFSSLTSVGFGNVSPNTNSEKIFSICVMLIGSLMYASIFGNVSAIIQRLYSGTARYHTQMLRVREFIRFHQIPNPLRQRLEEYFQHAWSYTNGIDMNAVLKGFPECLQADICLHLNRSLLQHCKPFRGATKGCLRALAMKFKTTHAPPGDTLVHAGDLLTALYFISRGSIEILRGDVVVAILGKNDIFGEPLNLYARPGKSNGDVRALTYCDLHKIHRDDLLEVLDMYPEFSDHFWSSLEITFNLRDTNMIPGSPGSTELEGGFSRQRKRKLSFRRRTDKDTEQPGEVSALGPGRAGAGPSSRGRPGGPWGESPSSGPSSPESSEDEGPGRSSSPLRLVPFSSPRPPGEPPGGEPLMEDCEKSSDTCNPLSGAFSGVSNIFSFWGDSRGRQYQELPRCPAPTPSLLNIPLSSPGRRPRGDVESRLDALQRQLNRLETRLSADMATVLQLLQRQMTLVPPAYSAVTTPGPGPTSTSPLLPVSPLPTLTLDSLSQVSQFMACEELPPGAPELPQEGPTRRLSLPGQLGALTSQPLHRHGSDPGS
T1 sequence (Q12809 whole entry F557L/F656C): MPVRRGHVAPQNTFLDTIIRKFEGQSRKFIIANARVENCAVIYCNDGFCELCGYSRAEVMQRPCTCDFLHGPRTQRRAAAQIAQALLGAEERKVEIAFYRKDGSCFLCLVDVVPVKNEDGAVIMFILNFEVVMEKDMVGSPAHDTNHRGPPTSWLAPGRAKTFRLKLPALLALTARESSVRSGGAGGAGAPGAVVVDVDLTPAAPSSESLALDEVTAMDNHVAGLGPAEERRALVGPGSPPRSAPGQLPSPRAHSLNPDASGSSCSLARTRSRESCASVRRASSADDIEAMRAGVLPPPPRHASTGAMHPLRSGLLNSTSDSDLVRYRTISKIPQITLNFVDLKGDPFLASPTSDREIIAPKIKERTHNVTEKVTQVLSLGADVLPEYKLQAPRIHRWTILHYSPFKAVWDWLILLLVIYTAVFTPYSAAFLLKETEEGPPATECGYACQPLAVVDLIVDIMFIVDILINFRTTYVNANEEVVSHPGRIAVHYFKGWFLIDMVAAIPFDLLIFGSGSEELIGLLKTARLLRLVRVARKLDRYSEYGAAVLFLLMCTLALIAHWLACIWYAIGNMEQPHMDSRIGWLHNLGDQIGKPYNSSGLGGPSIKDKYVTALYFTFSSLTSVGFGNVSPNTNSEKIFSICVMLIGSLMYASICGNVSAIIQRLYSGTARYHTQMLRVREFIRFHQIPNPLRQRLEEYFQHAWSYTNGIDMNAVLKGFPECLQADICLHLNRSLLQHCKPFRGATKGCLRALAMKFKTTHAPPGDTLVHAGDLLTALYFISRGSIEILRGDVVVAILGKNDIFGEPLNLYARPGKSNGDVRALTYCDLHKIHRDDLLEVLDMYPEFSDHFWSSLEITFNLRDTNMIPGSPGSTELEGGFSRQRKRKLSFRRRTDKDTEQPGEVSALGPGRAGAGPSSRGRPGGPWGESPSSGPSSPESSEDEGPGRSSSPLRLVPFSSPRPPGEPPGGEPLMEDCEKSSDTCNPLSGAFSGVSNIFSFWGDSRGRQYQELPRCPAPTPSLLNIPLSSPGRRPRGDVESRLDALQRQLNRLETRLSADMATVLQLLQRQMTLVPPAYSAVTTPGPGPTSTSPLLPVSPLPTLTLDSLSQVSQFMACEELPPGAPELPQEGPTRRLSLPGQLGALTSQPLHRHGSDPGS
T2 sequence (Q12809 whole entry): as the sequence (Q12809 whole entry) above
F656C hERG1, sequence (Q12809 whole entry F656C): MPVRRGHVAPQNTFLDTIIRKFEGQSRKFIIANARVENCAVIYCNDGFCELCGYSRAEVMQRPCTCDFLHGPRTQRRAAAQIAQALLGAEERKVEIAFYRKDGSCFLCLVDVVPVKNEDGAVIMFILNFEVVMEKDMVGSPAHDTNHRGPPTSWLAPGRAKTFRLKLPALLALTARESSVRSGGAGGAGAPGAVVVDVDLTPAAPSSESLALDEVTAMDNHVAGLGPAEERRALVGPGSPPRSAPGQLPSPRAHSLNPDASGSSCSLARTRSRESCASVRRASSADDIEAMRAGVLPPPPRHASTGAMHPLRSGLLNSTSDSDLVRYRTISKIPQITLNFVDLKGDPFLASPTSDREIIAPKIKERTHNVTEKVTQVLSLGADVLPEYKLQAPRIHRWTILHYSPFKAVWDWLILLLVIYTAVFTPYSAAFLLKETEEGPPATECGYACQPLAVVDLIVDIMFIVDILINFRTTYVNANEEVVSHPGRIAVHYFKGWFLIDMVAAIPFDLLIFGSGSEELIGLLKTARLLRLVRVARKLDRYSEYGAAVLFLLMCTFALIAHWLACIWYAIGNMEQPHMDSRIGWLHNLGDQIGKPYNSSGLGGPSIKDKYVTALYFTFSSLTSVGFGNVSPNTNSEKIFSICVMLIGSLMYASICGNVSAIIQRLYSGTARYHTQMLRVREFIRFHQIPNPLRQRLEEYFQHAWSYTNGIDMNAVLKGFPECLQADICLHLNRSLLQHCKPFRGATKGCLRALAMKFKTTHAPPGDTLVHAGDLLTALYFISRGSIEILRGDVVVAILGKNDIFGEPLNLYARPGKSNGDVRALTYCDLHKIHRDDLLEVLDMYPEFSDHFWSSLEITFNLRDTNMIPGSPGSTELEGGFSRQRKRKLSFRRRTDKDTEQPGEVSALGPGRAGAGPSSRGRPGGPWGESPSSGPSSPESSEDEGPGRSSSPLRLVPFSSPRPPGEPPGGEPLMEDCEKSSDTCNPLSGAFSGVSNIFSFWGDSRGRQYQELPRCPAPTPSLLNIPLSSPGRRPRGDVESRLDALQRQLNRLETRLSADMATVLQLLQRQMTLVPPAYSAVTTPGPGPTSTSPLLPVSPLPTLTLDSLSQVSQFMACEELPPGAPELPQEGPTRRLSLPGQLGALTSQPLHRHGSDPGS

As for `CN(CCOc1ccc(NS(C)(=O)=O)cc1)CCc1ccc(NS(C)(=O)=O)cc1` [dofetilide], the IC50 with guinea pig myocytes (read-out: high affinity for binding of dofetilide, high-affinity site) is 100 nM; in the data set with guinea pig myocytes (read-out: low affinity for binding of dofetilide (low affinity IC50 value), low-affinity site), 1000 nM. The “sensitivity of block to the M651T mutation” value in the data set on M651T hERG1 is on record as “insensitive”.

Regarding `COc1cc2c(cc1OC)CC(=O)N(CCCN(C)C[C@H]1Cc3cc(OC)c(OC)cc31)CC2` [ivabradine], the IC50 came to 6.8 µM against WT hERG1 (IC50 for block (Hill fit), WT, Figure 7A); 6.7 µM against WT hERG1 (IC50 for block of hERG1, WT, applied extracellularly, tail currents, room temperature); 45 µM at F656C hERG1. Further, the “block in raw current traces” value at F557L/F656C hERG1 (F557L/F656C, 100 µM Ivabradine vs control) is reported as “no block”. Besides, the blocking at F557L/F656C hERG1 (double mutant F557L/F656C, suprapharmacologic concentrations (dofetilide 20 µM, ivabradine 100 µM)) is reported as ~ 15%. For the same molecule, the “block of hERG1 current when applied intracellularly” value on hERG1 was “little block”.

The record behind these values is publication PMC7338687, “Allosteric Coupling Between Drug Binding and the Aromatic Cassette in the Pore Domain of the hERG1 Channel: Implications for a State-Dependent Blockade” (Frontiers in Pharmacology, 2020).
